From patent US11040028B2, “Penicinotam derivative, preparation method and use thereof” (OCEAN UNIVERSITY OF CHINA, priority 2017, dated 2021) come the findings set out here.

Assay type in all cases: cell-based
In test [1] the test system is human hepatic stellate cells LX-2. Kind of test: Anti-fibrosis activity test: inhibition of proliferation of human hepatic stellate cells LX-2 (CCK-8). The conditions noted are these: human hepatic stellate cells LX-2, CCK-8, 48 hours. The procedure: (§1) BHK-21 cells in exponential growth phase were selected. After the fusion growth reached 85-95%, normal passage method was utilized to digest and collect the cells, followed by cell counting and adjusting the cell density to 2×10^4 cells/mL. The cells were seeded into 96-well plates, 100 μL/well, and were incubated under the condition of 5% CO2 at 37° C.
(§2) The supernatant was removed after the cells had adhered to the wall for 24 hours. The culture solution containing the prepared compounds at different concentrations were added to the wells, 100 μL/well, each concentration in triplicate. The cells were subcultured for 48 hours after administration. Commercially available pirfenidone was employed as the positive control.
(§3) 10 μL of CCK-8 solution ( 1/10 of the volume of the culture solution) was added to each well 48 hours after the administration, and incubated for 2 hours. The absorbance (A) of each well was determined by a microplate reader at 450 nm wavelength. The inhibition rate against cell proliferation for each compound was calculated based on A, wherein inhibition rate against cell proliferation (inhibition ratio, IR)=(1−value of experimental group (Ai)/value of blank control group (Ao))×100% and the IC50 value of each compound was calculated by the data processing software.
(§4) Using the same protocol for the cell experiments, the inhibitory activity of the test compounds against the proliferation of human lung fibroblasts HFL1, human hepatic stellate cells LX-2, human fibrosarcoma cells HT-1080, human dermal fibroblasts CCC-ESF-1, human embryonic lung fibroblast IMR-90, cardiac fibroblast RAT-iCell-C002 was assayed.

Test [2] concerns human fibrosarcoma cells HT-1080. Description: Anti-fibrosis activity test: inhibition of proliferation of human fibrosarcoma cells HT-1080 (CCK-8). Particulars: human fibrosarcoma cells HT-1080, CCK-8, 48 hours. The procedure: as §1, §2, §3, §4
Test [3] relates to human embryonic lung fibroblast IMR-90. Kind of test: Anti-fibrosis activity test: inhibition of proliferation of human embryonic lung fibroblast IMR-90 (CCK-8). The conditions noted are these: human embryonic lung fibroblast IMR-90, CCK-8, 48 hours. The procedure:
as §1, §2, §3, §4

The test system of test [4] is human dermal fibroblasts CCC-ESF-1. Description: Anti-fibrosis activity test: inhibition of proliferation of human dermal fibroblasts CCC-ESF-1 (CCK-8). The conditions noted are these: human dermal fibroblasts CCC-ESF-1, CCK-8, 48 hours. The procedure: as §1, §2, §3, §4
Test [5] has as its system BHK-21 cells. Kind of test: Anti-fibrosis activity test: inhibition of BHK-21 cell proliferation (CCK-8). The procedure:
as §1, §2, §3

Test [6] concerns cardiac fibroblast RAT-iCell-C002. Description: Anti-fibrosis activity test: inhibition of proliferation of cardiac fibroblast RAT-iCell-C002 (CCK-8). The conditions noted are these: Cardiac fibroblast, 48 h, cardiac fibroblast RAT-iCell-C002, CCK-8, 48 hours. The procedure: as §1, §2, §3, §4
For test [7], the system named is human lung fibroblasts HFL1. Kind of test: Anti-fibrosis activity test: inhibition of proliferation of human lung fibroblasts HFL1 (CCK-8). Particulars: human lung fibroblasts HFL1, CCK-8, 48 hours. The procedure:
as §1, §2, §3, §4

Where [8] appears, read: Mesocricetus auratus, BHK-21, 48 h, CCK-8, 48 hours after administration.
[9] abbreviates: CCK-8, 48 hours after administration.

As to `O=C(Cn1c2c(c(=O)c3ccccc31)C(=O)n1cccc1-2)c1ccc(C(F)(F)F)cc1` [Compound 91a, 4-(2-Oxo-2-(4-(trifluoromethyl)phenyl)ethyl)-9H-pyrrolizino[1,2-b]quinoline-9,10(4)-dione], the values for the half-inhibitory concentration (IC50) in test [1] and in test [2] were 0.05 to 5 mM and 5 to 20 mM, respectively.

As for `CC(C)CCn1c2c(c(=O)c3cc(F)ccc31)C(=O)n1cccc1-2` [Compound 105a, 7-Fluoro-4-isopentyl-9H-pyrrolizino[1,2-b]quinoline-9,10(4H)-dione], the concentration for half-maximal inhibition (IC50) in test [1] (Homo sapiens, 48 h) fell in the range of 0.05 to 5 mM; in test [2] (Homo sapiens, HT-1080, 48 h), 0.05 to 5 mM; in test [3], 0.05 to 5 mM; in test [4] (Fibroblast), 0.05 to 5 mM; in test [5] (setting [8]), 0.05 to 5 mM; in test [6], 0.05 to 5 mM. The IC50 in test [7] (Homo sapiens, HFL1, 48 h) was in the range of 0.05 to 5 mM.

Regarding `CC(C)CCOc1c2c(nc3ccc(F)cc13)-c1cccn1C2=O` [Compound 105b, 7-fluoro-9-(isopentyloxy)-10H-pyrrolizino[1,2-b]quinolin-10-one], the IC50 lay within 0.05 to 5 mM in test [1] (Homo sapiens, 48 h); 0.05 to 5 mM in test [2] (Homo sapiens, HT-1080, 48 h); 0.05 to 5 mM in test [3]; 0.05 to 5 mM in test [4] (Fibroblast); 0.05 to 5 mM in test [5] (setting [8]); 0.05 to 5 mM in test [6]. Further, the 50% inhibitory concentration (IC50) in test [7] (Homo sapiens, HFL1, 48 h) lay in the range of 0.05 to 5 mM.

In the case of `O=C1c2c([nH]c3cc(N4CCNCC4)c(F)cc3c2=O)-c2cccn21` [Compound 346a, 7-Fluoro-6-(piperazin-1-yl)-9H-pyrrolizino[1,2-b]quinoline-9,10(4H)-dione], the IC50 in test [1] (Homo sapiens, 48 h) was 0.05 to 5 mM; in test [2] (Homo sapiens, HT-1080, 48 h), 0.05 to 5 mM; in test [3], 0.05 to 5 mM; in test [4] (Fibroblast), 0.05 to 5 mM; in test [5] (setting [8]), 0.05 to 5 mM; in test [6], 0.05 to 5 mM. In test [7] (Homo sapiens, HFL1, 48 h), this compound showed an IC50 of 0.05 to 5 mM.

As to `O=C1c2c(nc3cc(N4CCNCC4)c(F)cc3c2O)-c2cccn21` [Compound 346b, 7-fluoro-9-hydroxy-6-(piperazin-1-yl)-10H-pyrrolizino[1,2-b]quinolin-10-one], the IC50 lay in the range of 0.05 to 5 mM in test [1] (Homo sapiens, 48 h); 0.05 to 5 mM in test [2] (Homo sapiens, HT-1080, 48 h); 0.05 to 5 mM in test [3]; 0.05 to 5 mM in test [4] (Fibroblast); 0.05 to 5 mM in test [5] (setting [8]); 0.05 to 5 mM in test [6]. Also, the IC50 in test [7] (Homo sapiens, HFL1, 48 h) was in the range of 0.05 to 5 mM.

With `CC(C)CCn1c2c(c(=O)c3cc(F)c(N4CCNCC4)cc31)C(=O)n1cccc1-2` [Compound 347a, 7-Fluoro-4-isopentyl-6-(piperazin-1-yl)-9H-pyrrolizino[1,2-b]quinoline-9,10(4H)-dione], the half-maximal inhibitory concentration (IC50) lay in the range of 5 to 20 mM in test [1] (Homo sapiens, 48 h); 0.05 to 5 mM in test [2] (Homo sapiens, HT-1080, 48 h); 0.05 to 5 mM in test [3]; 0.05 to 5 mM in test [4] (Fibroblast); 0.05 to 5 mM in test [5] (setting [8]); 0.05 to 5 mM in test [6]. Further, the half-maximal inhibitory concentration (IC50) in test [7] (Homo sapiens, HFL1, 48 h) lay within 0.05 to 5 mM.

Take `CC(C)CCOc1c2c(nc3cc(N4CCNCC4)c(F)cc13)-c1cccn1C2=O` [Compound 347b, 7-fluoro-9-(isopentyloxy)-6-(piperazin-1-yl)-10H-pyrrolizino[1,2-b]quinolin-10-one]: the IC50 in test [1] (Homo sapiens, 48 h) is 0.05 to 5 mM; in test [2] (Homo sapiens, HT-1080, 48 h) it was 0.05 to 5 mM; in test [3] it was 0.05 to 5 mM; in test [4] (Fibroblast), 0.05 to 5 mM; in test [5] (setting [8]), 0.05 to 5 mM; in test [6], 0.05 to 5 mM. The half-inhibitory concentration (IC50) in test [7] (Homo sapiens, HFL1, 48 h) lay in the range of 0.05 to 5 mM.

For `O=C1c2c(n(Cc3ccccc3Cl)c3cc(Cl)ccc3c2=O)-c2cccn21` [Compound 510a, 6-Chloro-4-(2-chlorobenzyl)-9H-pyrrolizino[1,2-b]quinoline-9,10(4H)-dione], the half-maximal inhibitory concentration (IC50) in test [1] (Homo sapiens, 48 h) is 0.05 to 5 mM; in test [2] (Homo sapiens, HT-1080, 48 h), 0.05 to 5 mM; in test [3], 0.05 to 5 mM; in test [4] (Fibroblast) it was 0.05 to 5 mM; in test [5] (setting [8]), less than 0.05 mM; in test [6], 0.05 to 5 mM. In addition, the half-inhibitory concentration (IC50) in test [7] (Homo sapiens, HFL1, 48 h) lay in the range of 0.05 to 5 mM.

Take `O=C1c2c(nc3cc(Cl)ccc3c2OCc2ccccc2Cl)-c2cccn21` [Compound 510b, 6-chloro-9-((2-chlorobenzyl)oxy)-10H-pyrrolizino[1,2-b]quinolin-10-one]: the IC50 in test [1] (Homo sapiens, 48 h) was in the range of 0.05 to 5 mM; in test [2] (Homo sapiens, HT-1080, 48 h), 0.05 to 5 mM; in test [3], 0.05 to 5 mM; in test [4] (Fibroblast), 0.05 to 5 mM; in test [5] (setting [8]), 0.05 to 5 mM; in test [6] it was 0.05 to 5 mM. The compound also had a concentration for half-maximal inhibition (IC50) in test [7] (Homo sapiens, HFL1, 48 h) of 0.05 to 5 mM.

With `N#Cc1ccc2nc3c(c(OCc4ccc(-c5ccccc5C#N)cc4)c2c1)C(=O)n1cccc1-3` [Compound 629b, 9-((2′-cyano-[1,1′-biphenyl]-4-yl)methoxy)-10-oxo-10H-pyrrolizino[,2-b]quinoline-7-carbonitrile], the half-maximal inhibitory concentration (IC50) in test [4] and in test [5] (setting [9]) was 0.05 to 5 mM in each case.

As for `O=C1c2c(n(Cc3ccc(F)cc3F)c3cc(N4CCNCC4)ccc3c2=O)-c2cccn21` [Compound 630a, 4-(2,4-Difluorobenzyl)-6-(piperazin-1-yl)-9H-pyrrolizino[1,2-b]quinoline-9,10(4H)-dione], the IC50 in test [5] (setting [9]) and in test [7] was less than 0.05 mM throughout.

`O=C1c2c(nc3cc(N4CCNCC4)ccc3c2OCc2ccc(F)cc2F)-c2cccn21` [Compound 630b, 9-((2,4-difluorobenzyl)oxy)-6-(piperazin-1-yl)-10H-pyrrolizino[1,2-b]quinolin-10-one]: the IC50 in test [5] (setting [9]) was 0.05 to 5 mM; in test [7], 5 to 20 mM.

Regarding `O=C1c2c(n(Cc3ccc(Cl)cc3)c3cc(N4CCNCC4)c(F)cc3c2=O)-c2cccn21` [Compound 632a, 4-(4-Chlorobenzyl)-7-fluoro-6-(piperazin-1-yl)-9H-pyrrolizino[1,2-b]quinoline-9,10(4H)-dione], the IC50 in test [1] (Homo sapiens, 48 h) is 0.05 to 5 mM; in test [2] (Homo sapiens, HT-1080, 48 h), 0.05 to 5 mM; in test [3], 0.05 to 5 mM; in test [4] (Fibroblast), less than 0.05 mM; in test [5] (setting [8]), 0.05 to 5 mM; in test [6] it was 0.05 to 5 mM. Moreover, the 50% inhibitory concentration (IC50) in test [7] (Homo sapiens, HFL1, 48 h) lay in the range of 0.05 to 5 mM.

On to `O=C1c2c(nc3cc(N4CCNCC4)c(F)cc3c2OCc2ccc(Cl)cc2)-c2cccn21` [Compound 632b, 9-((4-chlorobenzyl)oxy)-7-fluoro-6-(piperazin-1-yl)-10H-pyrrolizino[1,2-b]quinolin-10-one], for which the 50% inhibitory concentration (IC50) was in the range of 0.05 to 5 mM in test [1] (Homo sapiens, 48 h); 0.05 to 5 mM in test [2] (Homo sapiens, HT-1080, 48 h); 0.05 to 5 mM in test [3]; 0.05 to 5 mM in test [4] (Fibroblast); 0.05 to 5 mM in test [5] (setting [8]); 0.05 to 5 mM in test [6]. Moreover, the concentration for half-maximal inhibition (IC50) in test [7] (Homo sapiens, HFL1, 48 h) fell in the range of 0.05 to 5 mM.

For `O=C1c2c(n(Cc3ccc(Br)cc3)c3cc(N4CCNCC4)c(F)cc3c2=O)-c2cccn21` [Compound 633a, 4-(4-Bromobenzyl)-7-fluoro-6-(piperazin-1-yl)-9H-pyrrolizino[1,2-b]quinoline-9,10(4H)-dione], the IC50 in test [1] (Homo sapiens, 48 h) was 0.05 to 5 mM; in test [2] (Homo sapiens, HT-1080, 48 h), 0.05 to 5 mM; in test [3], 0.05 to 5 mM; in test [4] (Fibroblast), 0.05 to 5 mM; in test [5] (setting [8]), less than 0.05 mM; in test [6] it was 0.05 to 5 mM. The IC50 in test [7] (Homo sapiens, HFL1, 48 h) lay within 0.05 to 5 mM.

`O=C1c2c(n(Cc3cc(C(F)(F)F)cc(C(F)(F)F)c3)c3cc(N4CCNCC4)c(F)cc3c2=O)-c2cccn21` [Compound 639a, 4-(3,5-Bis(trifluoromethyl)benzyl)-7-fluoro-6-(piperazin-1-yl)-9H-pyrrolizino[,2-b]quinoline-9,10(4H)-dione] yielded a half-inhibitory concentration (IC50) in test [4] of less than 0.05 mM.

Consider `Cc1cc2n(c1)C(=O)c1c-2nc2ccccc2c1O` [Compound 801b, 9-hydroxy-2-methyl-0H-pyrrolizino[1,2-b]quinolin-10-one], for which the IC50 in test [5] (48 h, CCK-8) fell in the range of 0.05 to 5 mM.

Broadly, the IC50 is the concentration that gives 50% inhibition. Lower therefore signals greater potency.
